From US7795427B2, “Methods for inhibiting osteoclast differentiation, formation, or function and for increasing bone mass” (New York University, priority 2006, dated 2010)
“Also recorded” adds a separate entry of the source.

Key:
bone marrow cells = assay: RANKL-induced osteoclast formation from bone marrow cells (TRAP-positive MNC count); format: cell-based, mouse; details: for osteoclast formation: M-CSF and RANKL
Excerpt: FIG. 1. Effect of DPCPX on osteoclast formation by bone marrow cells. […] After 7 days cells were fixed and stained for TRAP, and the number of TRAP-positive MNCs per well was scored. (Similar results were obtained in three independent experiments). Bone marrow cells were isolated from 5- to 8-wk-old C57BL/6 female mice. Femurs and tibiae were aseptically removed and dissected free of adherent soft tissues. The bone ends were cut, and the marrow cavity was flushed out with medium αMEM from one end of the bone using a sterile 21-gauge needle. The bone marrow suspension was carefully agitated with a plastic Pasteur pipette to obtain a single-cell suspension. The cells were washed twice and resuspended (3.75×10^5 cells/ml) in α MEM containing 10% FBS, and this suspension was added to 24-well plates (500 μl/well). To each of these wells an additional 500 μl of medium containing M-CSF (30 ng/ml) and RANKL (30 ng/ml) without or with various concentrations of DPCPX and N6-CPA were added. Cultures were fed every 3 days by replacing 500 μl of culture medium with an equal quantity of fresh medium and reagents. After incubation for 7 days, wells were prepared for tartrate-resistant acid phosphatase (TRAP) staining. The number of TRAP-positive multinucleated cells (MNCs) containing three or more nuclei was scored. Osteoclast formation was evaluated by quantification of Tartrate-Resistant Acid Phosphatase (TRAP)-positive multinucleated cells (MNCs) using a modification of the method of Burstone. […] TRAP is preferentially expressed at high levels in osteoclasts and is considered, especially in the mouse, to be an osteoclast marker. After incubation, cells on wells were washed in PBS, fixed in 4% paraformaldehyde for 10 min, and stained for acid phosphatase in the presence of 0.3 M sodium tartrate (Sigma-Aldrich). The substrate used was napthol AS-BI phosphate (Sigma-Aldrich). Only those cells that were strongly TRAP-positive (dark red) and have more than 3 nuclei were counted by light microscopy.

[1] = tested on: RANKL-induced NF-κB signaling; assay: RANKL-induced NF-κB signaling in osteoclast precursors (Western blot of cytoplasmic and nuclear fractions); format: cell-based, mouse; design: dose or concentration left out as unconfirmed; details: M-CSF and RANKL
c-Fos mRNA = assay: RT-PCR of c-Fos mRNA in osteoclast precursors; format: cell-based, mouse; details: DPCPX 1 μM, M-CSF and RANKL, 7 days
Excerpt: (§1) FIG. 7. […] I.D. NO: 21); c-Fos antisense [NT]. I.D. NO: 22); PU.1.- sense [NT]. I.D. NO: 23); PU.1 antisense [NT]. […] I.D. NO: 10).

murine splenocytes = assay: RANKL-induced osteoclast formation by splenocytes (TRAP-positive MNC count); format: cell-based, mouse; details: for osteoclast formation: M-CSF and RANKL
Protocol: FIG. 4. Effect of DPCPX on osteoclast formation by Splenocytes. […] After 7 days cells were fixed and stained for TRAP, and the number of TRAP-positive MNCs per well was scored. (Similar results were obtained in three independent experiments). Splenocytes were isolated from 5- to 8-wk-old C57BL/6 female mice aspreviously described with modification. In brief, spleens were putted on top of 100 μm cell strainer in 50 ml falcon, mashed with plunger and rinsed the released cells through the strainer with 8 ml PBS. The nonadherent cells were layered on top of the lymphocyte separation medium. The cells were spin 1500 rpm for 20 minutes. The macrophages/lymphocyte white band was located about 1 cm below the top of the LSM. The PBS was aspirated until 1 ml above the band then 1 ml was removing to 50 ml Falcon including the band. To this Falcon 19 ml PBS was added and spine 1500 rpm for 15 minutes. PBS was removed and 10 ml αMEM was added. The cells were resuspended (3×10^5 cells/ml) in αMEM containing 10% FBS, and this suspension was added to 24-well plates ([…]) as described above. […] TRAP is preferentially expressed at high levels in osteoclasts and is considered, especially in the mouse, to be an osteoclast marker. After incubation, cells on wells were washed in PBS, fixed in 4% paraformaldehyde for 10 min, and stained for acid phosphatase in the presence of 0.3 M sodium tartrate (Sigma-Aldrich). The substrate used was napthol AS-BI phosphate (Sigma-Aldrich). Only those cells that were strongly TRAP-positive (dark red) and have more than 3 nuclei were counted by light microscopy.

TRAF6 = TRAF6 level in cells under A1 receptor blockade (other studies, data not shown); format: cell-based; details: adenosine A1 receptors blocked by DPCPX (data not shown)
PU.1 mRNA = assay: RT-PCR of PU.1 mRNA in osteoclast precursors; format: cell-based, mouse; details: DPCPX 1 μM, M-CSF and RANKL, 7 days
Excerpt: as §1

[2] = tested on: ovariectomized C57BL/6 mice; assay: Bone loss due to ovariectomy (microCT); format: in vivo, mouse; details: OVX C57BL/6 mice, DPCPX 50 mg/kg/d oral in water, 5 weeks
Protocol: FIG. 12. Effects of the A1R Antagonist DPCPX on Bone Loss Due to Ovariectomy. […] Data are expressed as percent change relative to sham-operated vehicle-treated control mice. 6 Week old C57bl/6 female mice received ovariectomy or a sham procedure in which the ovaries were exteriorized but not removed. Mice were sacrificed 5 weeks after the surgical procedure. Mice were treated with either water alone or DPCPX dissolved in water and adjusted, based on the weight of the animals, to a dose of 50 mg/kg/d. Femoral μCT was measured as described (Hildebrand […] new method for the model-independent assessment of thickness in three-dimensional images. J Microsc 1997; 185:67-75) by using a MS-8 (MS-8, GE Healthcare, London, Ontario, Canada) at 18 μm isotropic resolution-scans calibrated by air, water and a mineral standard material phantom/Parker algorithm for digital reconstruction.

osteoclast precursors = assay: Osteoclast formation with DPCPX added at different days of culture; format: cell-based, mouse
Protocol: FIG. 5. DPCPX Inhibits Osteoclastogenesis by Acting on Osteoclast Precursors. […] After culture for 7 days with DPCPX, cells were stained for TRAP. Results are expressed as the mean±SEM of three cultures per variable. […] TRAP is preferentially expressed at high levels in osteoclasts and is considered, especially in the mouse, to be an osteoclast marker. After incubation, cells on wells were washed in PBS, fixed in 4% paraformaldehyde for 10 min, and stained for acid phosphatase in the presence of 0.3 M sodium tartrate (Sigma-Aldrich). The substrate used was napthol AS-BI phosphate (Sigma-Aldrich). Only those cells that were strongly TRAP-positive (dark red) and have more than 3 nuclei were counted by light microscopy. To determine at which stage DPCPX inhibits osteoclast differentiation, osteoclast precursors were incubated with M-CSF, RANKL and DPCPX was added on day 0, 3 and 6. After culture for a total of 7 days with DPCPX, TRAP-positive multinucleated cells were enumerated.

[3] = M-CSF and DPCPX without RANKL (data not shown)
[4] = increasing concentrations of DPCPX added day 0 with M-CSF and RANKL (30 ng/ml each), 7 days
[5] = DPCPX 3 days (per FIG. 8 legend)

Compound: CCCn1c(=O)c2[nH]c(C3CCCC3)nc2n(CCC)c1=O [DPCPX, 8-cyclopentyl-1,3-dipropylxanthine]
- osteoclast formation (bone marrow cells; DPCPX 1 nM, 7 days): significantly inhibit
- osteoclast formation (bone marrow cells; DPCPX 1 μM, 7 days): complete inhibition
- TRAP-positive cells in the absence of RANKL (bone marrow cells; [3]): no TRAP-positive cells were seen
- number of TRAP-positive cells (bone marrow cells; [4]): strikingly inhibited the number of TRAP-positive cells in a dose-dependent manner
- cytoplasmic p50 and p65 [1, 5]: accumulate in the cytoplasm
- nuclear translocation of p50 and p65 [1, 5]: totally prevents
- RANKL-induced degradation of IκB ([1]; DPCPX treatment for 3 days (per FIG. 8 legend)): inhibited
- c-Fos mRNA expression (c-Fos mRNA): does not affect
- osteoclast formation (murine splenocytes; DPCPX 1 nM, 7 days): significantly inhibited
- osteoclast formation (murine splenocytes; DPCPX 1 μM, 7 days): almost complete inhibition
- TRAP-positive cells in the absence of RANKL (murine splenocytes; [3]): no TRAP-positive cells were seen
- number of TRAP-positive multinucleated cells (murine splenocytes; [4]): strikingly diminished the number of TRAP-positive multinucleated cells in a dose-dependent manner
- TRAF6 in the cell (TRAF6): is lost from the cell
- PU.1 mRNA expression (PU.1 mRNA): does not affect
- bone mass / trabecular bone volume (bone volume/total volume) following ovariectomy [2]: did not lose bone mass; also recorded: prevents ovariectomy-induced bone loss
- osteoclast formation (osteoclast precursors; DPCPX added on day 0, total culture 7 days): inhibited
- osteoclast formation (osteoclast precursors; DPCPX addition delayed (day 3, day 6), total culture 7 days): inhibition decreased
